# Data: patent US10752609B2, “GSK-3 inhibitors” (priority 2016, dated 2020)
# Like-named read-outs stand apart in the source and are kept apart here.
# What was measured:
# GSK3β = GSK3β (Homo sapiens, UniProt P49841); assay: GSK3β kinase assay (Caliper LabChip3000 mobility shift, fluoresceinated peptide substrate); format: biochemical
# Description: The kinase assay was performed in V-bottom 384-well plates. […] The reaction was incubated at room temperature for 20 hours and terminated by adding 45 μl of 35 mM EDTA to each sample. The reaction mixture was analyzed on the Caliper LabChip3000 (Caliper, Hopkinton, Mass.) by electrophoretic separation of the unphosphorylated substrate and phosphorylated product. […] Compounds were dissolved at 10 mM in dimethylsulfoxide (DMSO) and evaluated at eleven concentrations. IC50 values were derived by non-linear regression analysis.
# pTau = pTau assay (no method described); format: cell-based
# GSK3α = GSK3α (Homo sapiens, UniProt P49840); assay: GSK3α kinase assay (Caliper LabChip3000 mobility shift, fluoresceinated peptide substrate)
# Sequence of GSK3α (P49840 whole entry, species assumed): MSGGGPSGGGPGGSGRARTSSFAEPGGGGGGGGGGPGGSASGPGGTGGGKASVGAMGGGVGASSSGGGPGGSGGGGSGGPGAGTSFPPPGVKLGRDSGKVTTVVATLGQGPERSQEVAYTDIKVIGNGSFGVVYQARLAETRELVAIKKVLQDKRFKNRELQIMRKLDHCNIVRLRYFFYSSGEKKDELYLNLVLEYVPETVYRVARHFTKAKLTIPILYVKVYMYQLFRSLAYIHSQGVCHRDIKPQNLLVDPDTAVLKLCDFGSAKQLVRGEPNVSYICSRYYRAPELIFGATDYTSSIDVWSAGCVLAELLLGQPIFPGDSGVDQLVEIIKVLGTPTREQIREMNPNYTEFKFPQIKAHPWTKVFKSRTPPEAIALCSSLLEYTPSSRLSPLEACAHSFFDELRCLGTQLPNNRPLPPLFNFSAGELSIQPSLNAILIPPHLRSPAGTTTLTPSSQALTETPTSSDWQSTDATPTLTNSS
# [1] = 250 pM enzyme, 20 uM ATP, 1.5 uM peptide, 20 hours room temperature, first value of cell GSK3β/GSK3α, read-out: GSK3β (nM), IC50
# Sequence of GSK3β (P49841 whole entry, species assumed): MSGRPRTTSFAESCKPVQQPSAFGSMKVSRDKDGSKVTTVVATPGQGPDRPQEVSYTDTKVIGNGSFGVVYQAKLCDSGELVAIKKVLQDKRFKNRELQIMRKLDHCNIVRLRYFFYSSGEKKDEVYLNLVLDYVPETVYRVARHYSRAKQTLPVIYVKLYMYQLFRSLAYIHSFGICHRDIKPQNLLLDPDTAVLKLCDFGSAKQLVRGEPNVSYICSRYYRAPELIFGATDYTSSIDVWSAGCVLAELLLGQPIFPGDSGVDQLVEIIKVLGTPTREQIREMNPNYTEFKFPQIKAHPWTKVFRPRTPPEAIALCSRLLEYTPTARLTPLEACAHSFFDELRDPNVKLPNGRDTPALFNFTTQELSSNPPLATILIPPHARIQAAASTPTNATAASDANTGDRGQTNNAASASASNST
Compound,IC50 (GSK3β; [1]),IC50 (pTau),IC50 (GSK3α),IC50 (GSK3β)
"Cc1cc(C#N)ccc1Nc1nccc(C(=O)Nc2cnccc2-c2ccccc2)n1 [Example 21, 2-((4-Cyano-2-methylphenyl)amino)-N-(4-phenylpyridin-3-yl)pyrimidine-4-carboxamide]",0.43 nM,97 nM,0.35 nM,
"O=C(Nc1cnccc1-c1ccccc1)c1ccnc(Nc2ccc(Cl)cc2Cl)n1 [Example 23, 2-((2,4-Dichlorophenyl)amino)-N-(4-phenylpyridin-3-yl)pyrimidine-4-carboxamide]",6.2 nM,1600 nM,4.8 nM,
"N#Cc1ccc(Nc2nccc(C(=O)Nc3cnccc3-c3ccccc3)n2)c(Cl)c1 [Example 24, 2-((2-Chloro-4-cyanophenyl)amino)-N-(4-phenylpyridin-3-yl)pyrimidine-4-carboxamide]",3.8 nM,170 nM,1.6 nM,
"O=C(Nc1cnccc1-c1ccccc1)c1ccnc(Nc2ccc(C(F)(F)F)cc2F)n1 [Example 25, 2-((2-Fluoro-4-(trifluoromethyl)phenyl)amino)-N-(4-phenylpyridin-3-yl)pyrimidine-4-carboxamide]",,4800 nM,2.2 nM,3.3 nM
"O=C(Nc1cnccc1-c1ccccc1)c1ccnc(Nc2ccc(Cl)cc2F)n1 [Example 26, 2-((4-Chloro-2-fluorophenyl)amino)-N-(4-phenylpyridin-3-yl)pyrimidine-4-carboxamide]",0.57 nM,110 nM,0.33 nM,
"N#Cc1ccc(Nc2nccc(C(=O)Nc3cnccc3-c3ccccc3)n2)cc1Cl [Example 27, 2-((3-Chloro-4-cyanophenyl)amino)-N-(4-phenylpyridin-3-yl)pyrimidine-4-carboxamide]",,20 nM,0.16 nM,0.24 nM
"N#Cc1ccc(Nc2nccc(C(=O)Nc3cnccc3-c3ccccc3)n2)cc1C(F)(F)F [Example 28, 2-((4-Cyano-3-(trifluoromethyl)phenyl)amino)-N-(4-phenylpyridin-3-yl)pyrimidine-4-carboxamide]",,170 nM,0.9 nM,1.5 nM
"O=C(Nc1cnccc1-c1ccccc1)c1ccnc(Nc2ccc(OC(F)F)cc2Cl)n1 [Example 29, 2-((2-Chloro-4-(difluoromethoxy)phenyl)amino)-N-(4-phenylpyridin-3-yl)pyrimidine-4-carboxamide]",4.6 nM,1400 nM,2.6 nM,
"O=C(Nc1cnccc1-c1ccccc1)c1ccnc(Nc2c(F)cc(Cl)cc2F)n1 [Example 30, 2-((4-Chloro-2,6-difluorophenyl)amino)-N-(4-phenylpyridin-3-yl)pyrimidine-4-carboxamide]",3.9 nM,350 nM,1.8 nM,
"O=C(Nc1cnccc1-c1ccccc1)c1ccnc(Nc2cc(Cl)c(Cl)cc2F)n1 [Example 31, 2-((4,5-Dichloro-2-fluorophenyl)amino)-N-(4-phenylpyridin-3-yl)pyrimidine-4-carboxamide]",0.89 nM,320 nM,0.52 nM,
"O=C(Nc1cnccc1-c1ccccc1)c1ccnc(Nc2cc(F)c(Cl)cc2F)n1 [Example 32, 2-((4-Chloro-2,5-difluorophenyl)amino)-N-(4-phenylpyridin-3-yl)pyrimidine-4-carboxamide]",0.48 nM,100 nM,0.56 nM,
"O=C(Nc1cnccc1-c1ccccc1)c1ccnc(Nc2cc(OC(F)F)c(Cl)cc2F)n1 [Example 33, 2-((4-Chloro-5-(difluoromethoxy)-2-fluorophenyl)amino)-N-(4-phenylpyridin-3-yl)pyrimidine-4-carboxamide]",2.3 nM,700 nM,2.1 nM,
"O=C(Nc1cnccc1-c1ccccc1)c1ccnc(Nc2cccnc2)n1 [Example 34, N-(4-Phenylpyridin-3-yl)-2-(pyridin-3-ylamino)pyrimidine-4-carboxamide]",1.2 nM,46 nM,0.69 nM,
"O=C(Nc1cnccc1-c1ccccc1)c1ccnc(Nc2ccncc2)n1 [Example 35, N-(4-Phenylpyridin-3-yl)-2-(pyridin-4-ylamino)pyrimidine-4-carboxamide]",1.1 nM,30 nM,0.63 nM,
"Cc1cc(Nc2nccc(C(=O)Nc3cnccc3-c3ccccc3)n2)ccn1 [Example 36, 2-((2-Methylpyridin-4-yl)amino)-N-(4-phenylpyridin-3-yl)pyrimidine-4-carboxamide]",,36 nM,0.55 nM,0.84 nM
"COc1cc(Nc2nccc(C(=O)Nc3cnccc3-c3ccccc3)n2)ccn1 [Example 37, 2-((2-Methoxypyridin-4-yl)amino)-N-(4-phenylpyridin-3-yl)pyrimidine-4-carboxamide]",0.54 nM,33 nM,0.51 nM,
"O=C(Nc1cnccc1-c1ccccc1)c1ccnc(Nc2ccc(OC(F)F)nc2)n1 [Example 38, 2-((6-(Difluoromethoxy)pyridin-3-yl)amino)-N-(4-phenylpyridin-3-yl)pyrimidine-4-carboxamide]",3.1 nM,130 nM,1.1 nM,

Compound,IC50 (GSK3β; [1]),IC50 (pTau),IC50 (GSK3α),IC50 (GSK3β)
"O=C(Nc1cnccc1-c1ccccc1)c1ccnc(Nc2ccc(C(F)(F)F)nc2)n1 [Example 39, N-(4-Phenylpyridin-3-yl)-2-((6-(trifluoromethyl)pyridin-3-yl)amino)pyrimidine-4-carboxamide]",3.4 nM,470 nM,1.5 nM,
"Cc1nc(OC(F)F)ccc1Nc1nccc(C(=O)Nc2cnccc2-c2ccccc2)n1 [Example 40, 2-((6-(Difluoromethoxy)-2-methylpyridin-3-yl)amino)-N-(4-phenylpyridin-3-yl)pyrimidine-4-carboxamide]",22 nM,5200 nM,21 nM,
"Cc1cc(Nc2nccc(C(=O)Nc3cnccc3-c3ccccc3)n2)c(C)nc1OC(F)F [Example 41, 2-((6-(Difluoromethoxy)-2,5-dimethylpyridin-3-yl)amino)-I-(4-phenylpyridin-3-yl)pyrimidine-4-carboxamide]",1.6 nM,290 nM,1.9 nM,
"CC(C)OCCCNc1nccc(C(=O)Nc2cnccc2-c2ccccc2)n1 [Example 42, 2-((3-Isopropoxypropyl)amino)-N-(4-phenylpyridin-3-yl)pyrimidine-4-carboxamide]",0.88 nM,93 nM,0.59 nM,
"O=C(Nc1cnccc1-c1ccc(F)cc1)c1ccnc(Nc2ccccc2)n1 [Example 43, N-(4-(4-Fluorophenyl)pyridin-3-yl)-2-(phenylamino)pyrimidine-4-carboxamide]",0.25 nM,34 nM,0.19 nM,
"O=C(Nc1cnccc1-c1ccc(F)cc1)c1ccnc(Nc2ccc(F)cc2)n1 [Example 44, 2-((4-Fluorophenyl)amino)-N-(4-(4-fluorophenyl)pyridin-3-yl)pyrimidine-4-carboxamide]",0.26 nM,34 nM,0.46 nM,
"N#Cc1ccc(Nc2nccc(C(=O)Nc3cnccc3-c3ccc(F)cc3)n2)cc1 [Example 45, 2-((4-Cyanophenyl)amino)-N-(4-(4-fluorophenyl)pyridin-3-yl)pyrimidine-4-carboxamide]",0.35 nM,10 nM,0.29 nM,
"O=C(Nc1cnccc1-c1ccc(F)cc1)c1ccnc(Nc2ccc(Cl)cc2)n1 [Example 46, 2-((4-Chlorophenyl)amino)-N-(4-(4-fluorophenyl)pyridin-3-yl)pyrimidine-4-carboxamide]",0.5 nM,77 nM,0.44 nM,
"O=C(Nc1cnccc1-c1ccc(F)cc1)c1ccnc(Nc2ccc(C(F)(F)F)cc2)n1 [Example 47, N-(4-(4-Fluorophenyl)pyridin-3-yl)-2-((4-(trifluoromethyl)phenyl)amino)pyrimidine-4-carboxamide]",2.1 nM,100 nM,0.7 nM,
"O=C(Nc1cnccc1-c1ccc(F)cc1)c1ccnc(Nc2ccc(OC(F)(F)F)cc2)n1 [Example 48, N-(4-(4-Fluorophenyl)pyridin-3-yl)-2-((4-(trifluoromethoxy)phenyl)amino)pyrimidine-4-carboxamide]",1.5 nM,170 nM,1.3 nM,
"O=C(Nc1cnccc1-c1ccc(F)cc1)c1ccnc(Nc2ccc(OC(F)F)cc2)n1 [Example 49, 2-((4-(Difluoromethoxy)phenyl)amino)-N-(4-(4-fluorophenyl)pyridin-3-yl)pyrimidine-4-carboxamide]",0.48 nM,74 nM,0.29 nM,
"O=C(Nc1cnccc1-c1ccc(F)cc1)c1ccnc(Nc2ccc(OC(F)F)nc2)n1 [Example 50, 2-((6-(Difluoromethoxy)pyridin-3-yl)amino)-N-(4-(4-fluorophenyl)pyridin-3-yl)pyrimidine-4-carboxamide]",4 nM,180 nM,1.5 nM,
"O=C(Nc1cnccc1OCC(F)(F)F)c1ccnc(Nc2ccccc2)n1 [Example 51, 2-(Phenylamino)-N-(4-(2,2,2-trifluoroethoxy)pyridin-3-yl)pyrimidine-4-carboxamide]",0.25 nM,13 nM,0.16 nM,
"COc1ccc(Nc2nccc(C(=O)Nc3cnccc3OCC(F)(F)F)n2)cc1 [Example 52, 2-((4-Methoxyphenyl)amino)-N-(4-(2,2,2-trifluoroethoxy)pyridin-3-yl)pyrimidine-4-carboxamide]",0.07 nM,6 nM,0.06 nM,
"CCOc1ccc(Nc2nccc(C(=O)Nc3cnccc3OCC(F)(F)F)n2)cc1 [Example 53, 2-((4-Ethoxyphenyl)amino)-N-(4-(2,2,2-trifluoroethoxy)pyridin-3-yl)pyrimidine-4-carboxamide]",0.35 nM,10 nM,0.22 nM,
"Cc1ccc(Nc2nccc(C(=O)Nc3cnccc3OCC(F)(F)F)n2)cc1 [Example 54, 2-(p-Tolylamino)-N-(4-(2,2,2-trifluoroethoxy)pyridin-3-yl)pyrimidine-4-carboxamide]",0.12 nM,5.1 nM,0.08 nM,
